Results reported in US20260207759A1, “COMPOSITION OF CD40-BINDING MOLECULE AND PHARMACEUTICAL USE THEREOF” (SUZHOU SUNCADIA BIOPHARMACEUTICALS CO., LTD., priority 2022, published 2026).

How the values were obtained:
[1] = target: T1, CD40 (Homo sapiens, UniProt P25942); experiment: FACS binding of human-rabbit chimeric anti-CD40 antibodies to Raji cells
Protocol: Raji cells are of a tumor cell line that overexpresses human CD40. 2E5 Raji cells were inoculated onto a 96-well plate. 100 μL of a test antibody was added, with the highest final concentration of 100 nM. The antibody was 5-fold diluted to 8 concentrations. The plate was incubated at 4° C. for 1 h. The plate was washed once with a washing buffer, and an AF647-conjugated anti-human IgG antibody (Jackson Immunoresearch Laborotories, Cat. #205-609-088) was added at a dilution ratio of 1:500. The plate was incubated at 4° C. for 30 min. The plate was washed once with the washing buffer, and fluorescence intensity was measured using a flow cytometer. The binding EC50 values of the anti-CD40 antibodies for CD40 were calculated. The anti-CD40 antagonistic antibody CFZ533 (i.e., iscalimab, Nova) was used as a positive control, and the heavy and light chain variable region sequences were derived from sequence 5 and sequence 2 of U.S. Pat. No. 8,277,810B, respectively.

[2] = target: T2, Raji cell surface human CD40 (Homo sapiens, UniProt P25942); experiment: FACS binding of humanized anti-CD40 antibodies to Raji cells
T2 construct: Raji cells highly express human CD40 on the cell surface; endogenous in cells; host or cells: Raji cells
Protocol: Raji cells highly express human CD40 on the cell surface and thus can be used to detect the binding properties of CD40 antagonistic antibodies to the cell surface human CD40.
Raji cells were plated at 1.5E5 cells/well, and various concentrations of CD40 antagonistic antibodies were added. The plate was incubated at 4° C. for 1 h. After two washes with FACS buffer (PBS+2% FBS), a secondary antibody (Alexa Flour488 conjugated anti-human IgG (H+L) antibody) was added, and the plate was incubated at 4° C. for 0.5 h. After two washes with FACS buffer, the fluorescence intensity on the cell surface was measured by flow cytometry (BD FACS Celesta).

[3] = test system: human CD40 transgenic mice; experiment: Mouse T cell-dependent humoral immune response (TDAR) model, anti-KLH specific IgG; type: in vivo; conditions: 0.3 mpk BIW ip, hCD40 transgenic mice (IgG1 control 1 mg/kg)
Protocol: On day 0 of the experiment, one of the mice in each group was subjected to blood collection followed by intraperitoneal injection. On day 1, each mouse was intraperitoneally injected with 50 μg of KLH (KLH:complete Freund's adjuvant (CFA)=1:1 emulsified immune complex) for immunization. On day 15 of the experiment, each mouse was intraperitoneally injected with 50 μg of KLH (KLH:incomplete Freund's adjuvant (IFA)=1:1 emulsified immune complex) for a second immunization. Each group was intraperitoneally injected twice a week, and blood samples of about 150 μL were collected from the orbital venous plexus on days 7, 14, 21, and 28. Whole blood was left to stand at room temperature for 1-4 h and centrifuged at 7000 rpm at 4° C. for 10 min to separate serum, and the serum was stored at −80° C. for later use.
Mouse serum was separated weekly and assayed by ELISA for the anti-KLH specific IgG level.

[4] = test system: human CD40 transgenic mice; experiment: Mouse skin graft rejection model (antibodies, tacrolimus combination); type: in vivo
From the text: Male Balb/c mice, 6 weeks old, were purchased from the Laboratory Animal Management Department, Shanghai Institute of Planned Parenthood Research. Housing environment: SPF; certification number: 20180006023393.
On day-2 of the experiment, the mice were intraperitoneally injected with tacrolimus FK506 or CD40 antagonistic antibodies. On day 0 of the experiment, donor Balb/c mice and C57BL6/J mice were anesthetized with 4% chloral hydrate. The tails of the donor mice were removed, and full circles of skin, 1 cm in length, were isolated from the tails. The hair on the acceptor mice's back was removed, and an incision was made along the skin layer. An equal area of skin was removed while preserving the back fat and connective tissue. The donor skin was placed on the acceptor mice's incision site, and the incision was closed with glue. The mice were then placed back in cages to recover.
The mice were dosed according to the administration regimens in Table 16. After 7 days of recovery, the mouse skin survival was observed daily and rejection scores were recorded.

[5] = target: T1, CD40; experiment: Reporter gene cell activity of chimeric anti-CD40 antibodies (HEK-Blue CD40L cells, CD40L-induced SEAP); type: cell-based; design: host or cells: HEK-Blue CD40L cells; conditions: CD40L-stimulated HEK-Blue CD40L cells
Protocol: HEK-Blue CD40L cells were purchased from Invivogen (Cat. #hkb-cd40). The cells were stably transfected with the human CD40 gene and the NF-kB-mediated SEAP genome. The activation level of the CD40 signaling pathway can be characterized by detecting the secreted SEAP in the supernatant using QUANTI-Blue, the substrate of SEAP. In this experiment, the in vitro antagonist activity of anti-CD40 antibodies was assessed according to IC50 by detecting the activation of HEK-Blue CD40L cells by CD40L. HEK-Blue CD40L cells were cultured in a DMEM medium containing 10% FBS, 100 μg/mL Zeocin, and 30 μg/mL Blasticidin, and passaged 2-3 times in a week at a ratio of 1:5 or 1:10. During passaging, the medium was pipetted off, and the cell layer was rinsed with 5 mL of 0.25% pancreatin. Then the pancreatin was pipetted off, the cells were digested in an incubator for 3-5 min, and then a fresh medium was added to resuspend cells. 100 μL of cell suspension was added to a 96-well cell culture plate at a density of 5×10^5 cells/mL. The medium was DMEM containing 10% FBS, 100 μg/mL Zeocin, and 30 μg/mL Blasticidin. Only 100 μL of sterile water was added to the peripheral wells of the 96-well plate. […] The absorbance at 630 nm was measured with a microplate reader (Thermo MultiSkanFc), and IC50 values were calculated and used to assess the in vitro cell activity of the anti-CD40 antibodies.

T1 sequence (P25942 21-277): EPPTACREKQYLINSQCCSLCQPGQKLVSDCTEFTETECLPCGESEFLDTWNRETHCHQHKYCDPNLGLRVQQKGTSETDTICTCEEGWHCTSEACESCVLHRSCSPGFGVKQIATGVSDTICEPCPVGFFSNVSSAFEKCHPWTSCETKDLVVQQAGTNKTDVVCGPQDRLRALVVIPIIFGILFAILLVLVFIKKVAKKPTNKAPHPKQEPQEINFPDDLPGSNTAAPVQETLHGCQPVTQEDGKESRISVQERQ
T2 sequence (P25942 21-277): as above

“CFZ533: anti-CD40 antagonistic antibody CFZ533 (i.e., iscalimab), positive control, variable regions from U.S. Pat. No. 8,277,810B” was tested, and the EC50 [1] was 2.41 nM, the EC50 [2] was 1.01 nM and the “anti-KLH specific IgG, Day 7” value [3] was 0.04 ± 0.01. For the same substance, the “anti-KLH specific IgG, Day 14” value [3] was 30.9 ± 10.8, the “anti-KLH specific IgG, Day 21” value [3] was 845 ± 423 and the “anti-KLH specific IgG, Day 28” value [3] was 3043 ± 1600. The “Day-15 skin graft survival rate (%)” value ([4]; 3 mpk ip) was 0%, the “Skin graft score, 8 days” value ([4]; 3 mpk, score 3 (best) to 0 (rejected)) was 2.7 and the “Skin graft score, 10 days” value ([4]; 3 mpk, score 3 to 0) was 2.1. For the same substance, the “Skin graft score, 15 days” value ([4]; 3 mpk, score 3 to 0) was 0, the “Skin graft score, 20 days” value ([4]; 3 mpk, score 3 to 0) was 0 and the “Day-15 skin graft survival rate (%)” value ([4]; 10 mpk ip) was 0%. The “Skin graft score, 8 days” value ([4]; 10 mpk, score 3 to 0) was 2.9, the “Skin graft score, 10 days” value ([4]; 10 mpk, score 3 to 0) was 2.1 and the “Skin graft score, 15 days” value ([4]; 10 mpk, score 3 to 0) was 0. For the same substance, the “Skin graft score, 20 days” value ([4]; 10 mpk, score 3 to 0) was 0 and the IC50 [5] was 0.272 nM.
